From PMC6440935, “Characterization and phase I study of CLR457, an orally bioavailable pan-class I PI3-kinase inhibitor” (Investigational New Drugs, 2018)
Like-named read-outs stand apart in the source and are kept apart here.

Conditions: drug-related
From the text: The primary objective was to define the maximum tolerated dose (MTD). Secondary objectives included assessments for safety, tolerability, pharmacokinetic (PK) profile, and preliminary antitumor activity.
Patients had histologically documented locally advanced or metastatic solid tumors harboring an activating PIK3CA mutation or amplification, PTEN loss of function, c-MET activation, [16, 17] […] Other key inclusion criteria included age ≥ 18 years, Eastern Cooperative Oncology Group performance status (ECOG-PS) ≤2, adequate organ function, measurable or non-measurable disease as determined by Response Evaluation Criteria in Solid Tumors (RECIST) version 1.1.
The starting dose for CLR457 was 5 mg QD, based on preclinical toxicology studies in accordance with ICH guidelines, and was administered at the same time each day ±2 h in a fasted state. Various doses were planned up to 300 mg QD until MTD determination.
Safety was evaluated by incidence, nature, severity, and relatedness of adverse events (AEs), and graded according to National Cancer Institute - Common Terminology Criteria for Adverse Events (NCI CTCAE) v4.0.3. DLTs were defined as any hematologic or non-hematologic ≥ Grade 3 AE assessed as possibly related to CLR457 that occurred within the first cycle (28 days) of treatment. In addition, uncontrolled (> 14 days) Grade 2 rash or hyperglycemia were also considered DLTs. All AEs regardless of attribution were collected until 30 days following the last administration of treatment or study discontinuation/termination.
Descriptive methods were used to tabulate toxicity and response endpoints in the clinical trial. All patients treated with CLR457 were included for safety. […] Dose escalation was guided by an adaptive Bayesian logistic regression model (BLRM) incorporating the escalation with overdose control (EWOC) principle. […] The study data (including DLTs during cycle 1 and other safety and PK data) were reviewed by the sponsor and trial investigators at each dose level. […] The Full Analysis Set (FAS) included all patients who received at least one dose of CLR457. Safety set included all patients who received at least one dose of CLR457 and had at least one valid post-baseline assessment. The Dose-determining set (DDS) included all patients from the safety set who either met the following minimum exposure criterion and had sufficient safety evaluations, or experienced a DLT during Cycle 1 (the first 28 days of dosing). The Pharmacokinetic analysis set included all patients who had at least one blood sample providing evaluable PK data.

C[C@H]1OC(=O)N(c2cc(-c3cnc(N)nc3C(F)(F)F)nc(N3CCOCC3)n2)[C@H]1CO [CLR457]
Cough, Grade ≥ 3 (10 mg, N = 3): 0 n (%) | Decreased appetite, All Grade (10 mg, N = 3): 0 n (%) | Decreased appetite, Grade ≥ 3 (10 mg, N = 3): 0 n (%) | Decreased neutrophil count, All Grade (10 mg, N = 3): 0 n (%) | Decreased neutrophil count, Grade ≥ 3 (10 mg, N = 3): 0 n (%) | Dehydration, All Grade (10 mg, N = 3): 0 n (%) | Dehydration, Grade ≥ 3 (10 mg, N = 3): 0 n (%) | Diarrhea, All Grade (10 mg, N = 3): 0 n (%) | Diarrhea, Grade ≥ 3 (10 mg, N = 3): 0 n (%) | Dry mouth, All Grade (10 mg, N = 3): 0 n (%) | Dry mouth, Grade ≥ 3 (10 mg, N = 3): 0 n (%) | Dry skin, All Grade (10 mg, N = 3): 0 n (%) | Dry skin, Grade ≥ 3 (10 mg, N = 3): 0 n (%) | Dysgeusia, All Grade (10 mg, N = 3): 0 n (%) | Dysgeusia, Grade ≥ 3 (10 mg, N = 3): 0 n (%) | Fatigue, All Grade (10 mg, N = 3): 1 (33.3) n (%) | Fatigue, Grade ≥ 3 (10 mg, N = 3): 0 n (%) | Headache, All Grade (10 mg, N = 3): 0 n (%) | Headache, Grade ≥ 3 (10 mg, N = 3): 0 n (%) | Hyperglycemia, All Grade (10 mg, N = 3): 0 n (%) | Hyperglycemia, Grade ≥ 3 (10 mg, N = 3): 0 n (%) | Hypomagnesaemia, All Grade (10 mg, N = 3): 0 n (%) | Hypomagnesaemia, Grade ≥ 3 (10 mg, N = 3): 0 n (%) | Maculo-papular rash, All Grade (10 mg, N = 3): 0 n (%) | Maculo-papular rash, Grade ≥ 3 (10 mg, N = 3): 0 n (%) | Nausea, All Grade (10 mg, N = 3): 1 (33.3) n (%) | Nausea, Grade ≥ 3 (10 mg, N = 3): 0 n (%) | Pneumonitis, All Grade (10 mg, N = 3): 0 n (%) | Pneumonitis, Grade ≥ 3 (10 mg, N = 3): 0 n (%) | Pruritus, All Grade (10 mg, N = 3): 0 n (%) | Pruritus, Grade ≥ 3 (10 mg, N = 3): 0 n (%) | Pyrexia, All Grade (10 mg, N = 3): 0 n (%) | Pyrexia, Grade ≥ 3 (10 mg, N = 3): 0 n (%) | Rash, All Grade (10 mg, N = 3): 0 n (%) | Rash, Grade ≥ 3 (10 mg, N = 3): 0 n (%) | Stomatitis, All Grade (10 mg, N = 3): 0 n (%) | Stomatitis, Grade ≥ 3 (10 mg, N = 3): 0 n (%) | Vomiting, All Grade (10 mg, N = 3): 0 n (%) | Vomiting, Grade ≥ 3 (10 mg, N = 3): 0 n (%) | Weight decreased, All Grade (10 mg, N = 3): 0 n (%) | Weight decreased, Grade ≥ 3 (10 mg, N = 3): 0 n (%) | Asthenia, Grade ≥ 3 (20 mg, N = 4): 0 n (%) | Chills, All Grade (20 mg, N = 4): 0 n (%) | Chills, Grade ≥ 3 (20 mg, N = 4): 0 n (%) | Colitis, All Grade (20 mg, N = 4): 0 n (%) | Colitis, Grade ≥ 3 (20 mg, N = 4): 0 n (%) | Cough, All Grade (20 mg, N = 4): 0 n (%) | Cough, Grade ≥ 3 (20 mg, N = 4): 0 n (%) | Decreased appetite, All Grade (20 mg, N = 4): 0 n (%) | Decreased appetite, Grade ≥ 3 (20 mg, N = 4): 0 n (%) | Decreased neutrophil count, All Grade (20 mg, N = 4): 0 n (%) | Decreased neutrophil count, Grade ≥ 3 (20 mg, N = 4): 0 n (%) | Dehydration, All Grade (20 mg, N = 4): 0 n (%) | Dehydration, Grade ≥ 3 (20 mg, N = 4): 0 n (%) | Diarrhea, All Grade (20 mg, N = 4): 0 n (%) | Diarrhea, Grade ≥ 3 (20 mg, N = 4): 0 n (%) | Dry mouth, All Grade (20 mg, N = 4): 0 n (%) | Dry mouth, Grade ≥ 3 (20 mg, N = 4): 0 n (%) | Dry skin, All Grade (20 mg, N = 4): 0 n (%) | Dry skin, Grade ≥ 3 (20 mg, N = 4): 0 n (%) | Dysgeusia, All Grade (20 mg, N = 4): 0 n (%) | Dysgeusia, Grade ≥ 3 (20 mg, N = 4): 0 n (%) | Fatigue, All Grade (20 mg, N = 4): 1 (25.0) n (%) | Fatigue, Grade ≥ 3 (20 mg, N = 4): 0 n (%) | Headache, All Grade (20 mg, N = 4): 0 n (%) | Headache, Grade ≥ 3 (20 mg, N = 4): 0 n (%) | Hyperglycemia, All Grade (20 mg, N = 4): 0 n (%) | Hyperglycemia, Grade ≥ 3 (20 mg, N = 4): 0 n (%) | Hypomagnesaemia, All Grade (20 mg, N = 4): 0 n (%) | Hypomagnesaemia, Grade ≥ 3 (20 mg, N = 4): 0 n (%) | Maculo-papular rash, All Grade (20 mg, N = 4): 0 n (%) | Maculo-papular rash, Grade ≥ 3 (20 mg, N = 4): 0 n (%) | Nausea, All Grade (20 mg, N = 4): 0 n (%) | Nausea, Grade ≥ 3 (20 mg, N = 4): 0 n (%) | Pneumonitis, All Grade (20 mg, N = 4): 0 n (%) | Pneumonitis, Grade ≥ 3 (20 mg, N = 4): 0 n (%) | Pruritus, All Grade (20 mg, N = 4): 0 n (%) | Pruritus, Grade ≥ 3 (20 mg, N = 4): 0 n (%) | Pyrexia, All Grade (20 mg, N = 4): 0 n (%) | Pyrexia, Grade ≥ 3 (20 mg, N = 4): 0 n (%) | Rash, All Grade (20 mg, N = 4): 1 (25.0) n (%) | Rash, Grade ≥ 3 (20 mg, N = 4): 0 n (%) | Stomatitis, All Grade (20 mg, N = 4): 0 n (%) | Stomatitis, Grade ≥ 3 (20 mg, N = 4): 0 n (%) | Vomiting, All Grade (20 mg, N = 4): 0 n (%) | Vomiting, Grade ≥ 3 (20 mg, N = 4): 0 n (%) | Weight decreased, All Grade (20 mg, N = 4): 0 n (%) | Weight decreased, Grade ≥ 3 (20 mg, N = 4): 0 n (%) | Asthenia, Grade ≥ 3 (40 mg, N = 5): 0 n (%) | Chills, All Grade (40 mg, N = 5): 0 n (%) | Chills, Grade ≥ 3 (40 mg, N = 5): 0 n (%) | Colitis, All Grade (40 mg, N = 5): 0 n (%) | Colitis, Grade ≥ 3 (40 mg, N = 5): 0 n (%) | Cough, All Grade (40 mg, N = 5): 0 n (%) | Cough, Grade ≥ 3 (40 mg, N = 5): 0 n (%) | Decreased appetite, All Grade (40 mg, N = 5): 1 (20.0) n (%) | Decreased appetite, Grade ≥ 3 (40 mg, N = 5): 0 n (%)
